Assay results as given in patent publication US20210330611A1, “THERAPY FOR NEUROLOGICAL DISEASES/DISORDERS” (priority 2020, published 2021).
Where a name gives a salt, the structure may show the parent alone. Read-outs that look alike come from different tables or passages of the source.

Experiments:
[1] = system: fibrin-induced microglia activation; assay: Image-based assay of fibrin-induced microglia activation (HTS and dose response); assay type: cell-based, rat; details: primary microglia HTS, fibrin stimulation, compounds at 10 μM; for inhibition at 10 µM: Rattus norvegicus, Microglia, read-out: Fibrin % inhibition
[2] = system: primary rat microglia
[3] = system: fibrin- and LPS-induced microglia activation; assay: cells; assay type: cell-based, rat; details: classification by fibrin and LPS inhibition, HTS at 10 μM
[4] = system: primary rat microglia; assay: Cell toxicity (dead cells, size <150 μm2) in coated fibrin (cFib) assay; details: primary microglia HTS, fibrin assay, dead cells (size <150 μm2), compounds at 10 μM;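 also: share of dead cells sized under 150 µm2 at 10 µM in fibrin-stimulated microglia HTS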
[5] = system: LPS-induced microglia activation; assay: Image-based assay of LPS-induced microglia activation (HTS and dose response); assay type: cell-based, rat; details: primary microglia HTS, LPS stimulation, compounds at 10 μM; for inhibition at 10 µM: Rattus norvegicus, Microglia, read-out: LPS % inhibition

Row | Structure (SMILES) | inhibition at 10 µM [1] [%] | LPS % cell toxicity ([2]; rat) [%] | Quadrant (FIG. 5b) [3] | Fibrin % cell toxicity [4] [%] | inhibition at 10 µM [5] [%] | Fibrin % inhibition [1] [%] | LPS % cell toxicity [2] [%] | LPS % inhibition [5] [%]
1 | C[C@]12CC[C@@H]3c4ccc(OC(=O)N(CCCl)CCCl)cc4CC[C@H]3[C@@H]1CC[C@@H]2O [Estramustine] | 8 | 1 | Q4 | 1 | 16 | – | – | –
2 | C[C@]12CC[C@@H]3c4ccc(OS(=O)(=O)O)cc4CC[C@H]3[C@@H]1CCC2=O [Estropipate] | 10 | 0 | Q4 | 1 | 10 | – | – | –
3 | CN1CCN(C(=O)O[C@H]2c3nccnc3C(=O)N2c2ccc(Cl)cn2)CC1 [Eszopiclone] | 1 | 0 | Q4 | 0 | 17 | – | – | –
4 | CCN(CC)C(=O)c1ccc(O)c(OC)c1 [Etamivan] | -16 | 0 | Q4 | 1 | 16 | – | – | –
5 | CCOc1ccc2nc3cc(N)ccc3c(N)c2c1 [Ethacridine Lactate] | -64 | 0 | Q4 | 1 | -8 | – | – | –
6 | CCOc1ccc(Cc2nccc3cc(OCC)c(OCC)cc23)cc1OCC [Ethaverine Hydrochloride] | 41 | 1 | Q4 | 1 | 24 | – | – | –
7 | CCOc1ccccc1C(N)=O [Ethenzamide] | -15 | 0 | Q4 | 1 | 5 | – | – | –
8 | CCN(CC)C(C)CN1c2ccccc2Sc2ccccc21 (stereo not drawn) [Ethopropazine] | 31 | 0 | Q4 | 1 | 30 | – | – | –
9 | CCC1(C)CC(=O)NC1=O (stereo not drawn) [Ethosuximide] | -9 | 0 | Q4 | 0 | 19 | – | – | –
10 | CCOc1ccc2nc(S(N)(=O)=O)sc2c1 [Ethoxzolamide] | 29 | 1 | Q4 | 1 | 16 | – | – | –
11 | CCOc1cc(C=O)ccc1O [Ethyl Vanillin] | -15 | 0 | Q4 | 0 | 18 | – | – | –
12 | CCOC(N)=O [Ethyl carbamate] | 44 | 0 | Q4 | 1 | 27 | – | – | –
13 | CCOC(=O)c1ccc(O)cc1 [Ethylparaben] | -5 | 1 | Q4 | 1 | 8 | – | – | –
14 | CC(O)(P(=O)(O)O)P(=O)(O)O [Etidronic acid] | -16 | 0 | Q4 | 1 | 18 | – | – | –
15 | Cc1ccc(-c2ncc(Cl)cc2-c2ccc(S(C)(=O)=O)cc2)cn1 [Etoricoxib] | 15 | 0 | Q4 | 1 | -4 | – | – | –
16 | CCOC(=O)/C=C(C)/C=C/C=C(C)/C=C/c1c(C)cc(OC)c(C)c1C [Etretinate] | -19 | 0 | Q4 | 1 | 9 | – | – | –
17 | CC1CC(OC(=O)C(O)c2ccccc2)CC(C)(C)N1C (stereo not drawn) [Eucatropine Hydrochloride] | 1 | 0 | Q4 | 1 | 24 | – | – | –
18 | C=CCc1ccc(O)c(OC)c1 [Eugenol] | 37 | 0 | Q4 | 0 | 20 | – | – | –
19 | Cc1cc(-c2ccc(/N=N/c3ccc4c(S(=O)(=O)O)cc(S(=O)(=O)O)c(N)c4c3O)c(C)c2)ccc1/N=N/c1ccc2c(S(=O)(=O)O)cc(S(=O)(=O)O)c(N)c2c1O [Evans Blue] | -37 | 0 | Q4 | 0 | 7 | – | – | –
20 | CCCCCCOc1ccccc1C(N)=O [Exalamide] | -15 | 0 | Q4 | 1 | 18 | – | – | –
21 | O=C1[C@H](CC[C@H](O)c2ccc(F)cc2)[C@@H](c2ccc(O)cc2)N1c1ccc(F)cc1 [Ezetimibe] | 41 | 0 | Q4 | 1 | 27 | – | – | –
22 | CC(=O)OCC(CCn1cnc2cnc(N)nc21)COC(C)=O [Famciclovir] | -22 | 1 | Q4 | 0 | 14 | – | – | –
23 | CC(C)c1c(CN(C)C(C)Cc2ccccc2)n(C)n(-c2ccccc2)c1=O (stereo not drawn) [Famprofazone] | -3 | 0 | Q4 | 1 | 15 | – | – | –
24 | O=S(=O)(c1cccc2cnccc12)N1CCCNCC1 [Fasudil Hydrochloride] | -72 | 0 | Q4 | 1 | -21 | – | – | –
25 | Cc1nc(-c2ccc(OCC(C)C)c(C#N)c2)sc1C(=O)O [Febuxostat] | 3 | 0 | Q4 | 1 | 10 | – | – | –
26 | NC(=O)OCC(COC(N)=O)c1ccccc1 [Felbamate] | -32 | 0 | Q4 | 1 | 0 | – | – | –
27 | CCOC(=O)C1=C(C)NC(C)=C(C(=O)OC)C1c1cccc(Cl)c1Cl (stereo not drawn) [Felodipine] | 2 | 0 | Q4 | 1 | 14 | – | – | –
28 | O=C(CCCl)NCCc1ccccc1 [Fenaclon] | 8 | 0 | Q4 | 1 | 16 | – | – | –
29 | O=C(O)CCC(=O)c1ccc(-c2ccccc2)cc1 [Fenbufen] | 3 | 0 | Q4 | 0 | 25 | – | – | –
30 | CCCCC(O)c1ccccc1 (stereo not drawn) [Fenipentol] | – | – | Q4 | 1 | – | −1 | 0 | 25
